Source: patent US20260256136A1, “STABILIZATION OF ALDEHYDES AND/OR AN ALCOHOLS” (priority 2022, published 2026)

What was measured:
[1] = Accelerated storage test of aldehyde mixture with additive, 40 ppm Cu (Example 1); type: physicochemical; conditions: after 55° C. 14 days without cap; for Z9-16:Ald: before test 4.3, blank 3.066023; for C16:Acid: before test 6.7, blank 18.84135; for 16:Ald: before test 7.5, blank 6.659339; for Z11-16Ald: before test 69.4, blank 54.83784, in % (unit assumed)
Protocol: To a mixture of aldehydes containing; (Z)-9-hexadecenal, (Z)-11-hexadecenal, hexadecanal, (Z)-11-hexadecen-1-ol, (Z)-11-hexadecenoic acid and 40 ppm Cu was added an additive as indicated in table 1 below. The mixture was thoroughly mixed and heated without cap in an oven at 55° C. for 14 days as an accelerated storage test.

[2] = Accelerated storage test of aldehyde mixture with additive, 10 ppm Cu (Example 2); conditions: after 55° C. 14 days without cap; for C16:Acid: before test 1.05, blank 17.72; for Z9-16:Ald: before test 5.09, blank 3.05; for 16:Ald: before test 8.41, blank 6.60; for Z11-16Ald: before test 75.31, blank 54.31
Protocol: The term “accelerated storage test” as used herein refers to a well known protocol for investigating the stability of a particular composition. The protocol is described in for example the memorandum dated 16 Nov. 2012 from The United States Environmental Protection Agency Washington, D.C. 20460 with the subject title “Accelerated Storage Stability and Corrosion Characteristics Study Protocol”. The protocol evaluates product stability at 54° C.±2° C. for 14 days.

[3] = Storage test of aldehyde mixture containing 4-hydroxy-TEMPO with additive (Example 4); type: physicochemical; conditions: for Heptane / Z11-16:OH / 16:Acid / OH tempo / Z9-16:Ald / 15-1:Ald / 16:Ald / Z11-16:Ald: after 55° C. 14 days without cap; for Heptane: before test 0.04, without additive 0.04; for Z11-16:OH: before test 0.27, without additive 0.06; for 16:Acid: before test 1.05, without additive 6.14; for OH tempo: before test 1.19, without additive 1.11; for Z9-16:Ald: before test 5.09, without additive 3.71; for 15-1:Ald: before test 7.27, without additive 5.83; for 16:Ald: before test 8.41, without additive 6.64; for Z11-16:Ald: before test 75.31, without additive 57.21, in % (unit assumed)
Protocol: To a mixture of aldehydes containing; 4-hydroxy-TEMPO (4-hydroxy-2,2,6,6-tetramethylpiperidin-1-oxyl), (Z)-10-pentenenal, (Z)-9-hexadecenal, (Z)-11-hexadecenal, hexadecanal, (Z)-11-hexadecen-1-ol and (Z)-11-hexadecenoic acid in the composition listed in table 4 below was added up to 1% of an additive in table below. The mixture was thoroughly mixed and heated without cap in an oven at 55° C. for 14 days.

[4] = Storage test of aldehyde mixture containing 4-hydroxy-TEMPO and 10 ppm Copper with additive (Example 3); conditions: for Z11-16:OH / Z10-15:Ald / 16:Acid / Z9-16:Ald / 16:Ald / Z11-16:Ald: after 55 C 14 days without cap; for Z11-16:OH: before test 2.16, blank 1.44; for Z10-15:Ald: before test 2.61, blank 2.72; for 16:Acid: before test 3.01, blank 7.94; for Z9-16:Ald: before test 5.33, blank 3.91; for 16:Ald: before test 8.16, blank 6.48; for Z11-16:Ald: before test 74.98, blank 58.18
Protocol: To a mixture of aldehydes containing; 4-hydroxy-TEMPO (4-hydroxy-2,2,6,6-tetramethylpiperidin-1-oxyl), (Z)-10-pentenenal, (Z)-9-hexadecenal, (Z)-11-hexadecenal, hexadecanal, (Z)-11-hexadecen-1-ol (Z)-11-hexadecenoic acid and 10 ppm Copper in the composition listed in table 3 below was added up to 1% of an additive in table below. The mixture was thoroughly mixed and heated without cap in an oven at 55 C for 14 days.

SMILES	Z9-16:Ald [1]	C16:Acid [1]	16:Ald [1]	Z11-16Ald [1]	C16:Acid [2]	Z9-16:Ald [2]	16:Ald [2]	Z11-16Ald [2]	Heptane [3]	Z11-16:OH [3]	16:Acid [3]	OH tempo [3]	Z9-16:Ald [3]	15-1:Ald [3]	16:Ald [3]	Z11-16:Ald [3]	Z11-16:OH ([4]; 10 ppm Copper)	Z10-15:Ald ([4]; 10 ppm Copper)	16:Acid ([4]; 10 ppm Copper)	Z9-16:Ald ([4]; 10 ppm Copper)	further results
Cc1c(C)c2c(c(C)c1O)CCC(C)(CCCC(C)CCCC(C)CCCC(C)C)O2 (racemic) [Tocopherol]	3.379	17.008	6.914	54.67	17.70	3.09	6.65	54.82	–	–	–	–	–	–	–	–	–	–	–	–	–
CC1(C)CC(=O)CC(C)(C)N1 [2,2,6,6-tetramethyl-4-piperidone]	–	–	–	–	–	–	–	–	0.04	0.15	4.02	1.11	4.03	6.27	6.95	61.06	1.75	3.14	5.70	3.83	16:Ald ([4]; 10 ppm Copper): 6.41; Z11-16:Ald ([4]; 10 ppm Copper): 59.27
Cn1ccnc1S [2-mercapto-1-methylimidazole]	–	–	–	–	–	–	–	–	0.04	0.28	1.12	1.12	4.88	6.65	8.22	73.41	1.92	2.88	2.93	4.83	suppressing acid formation and/or degradation of the aldehydes [3]: particularly efficient at suppressing acid formation and/or degradation of the aldehydes; 16:Ald ([4]; 10 ppm Copper): 7.82; Z11-16:Ald ([4]; 10 ppm Copper): 72.34
Sc1nc2ccccc2[nH]1 [2-mercapto-Benzimidazole]	–	–	–	–	–	–	–	–	0.04	0.00	4.23	1.05	3.43	6.16	6.97	59.82	1.87	3.10	3.80	4.70	OH tempo [4]: 1.11; suppressing acid formation and degradation of the aldehydes ([4]; 55 C 14 days, 10 ppm Copper): particularly efficient at suppressing acid formation and degradation of the aldehydes; 16:Ald ([4]; 10 ppm Copper): 7.53; Z11-16:Ald ([4]; 10 ppm Copper): 69.33
SC1=NCCS1 [2-thiazoline-2-thiol]	–	–	–	–	–	–	–	–	0.04	0.00	1.69	0.83	4.64	6.26	8.08	68.79	2.18	2.48	2.74	5.06	suppressing acid formation and/or degradation of the aldehydes [3]: particularly efficient at suppressing acid formation and/or degradation of the aldehydes; 16:Ald ([4]; 10 ppm Copper): 8.21; Z11-16:Ald ([4]; 10 ppm Copper): 75.24
Nc1nnc(S)s1 [5-Amino-1,3,4-Thiadiazole-2-thiol]	–	–	–	–	–	–	–	–	0.04	0.12	1.87	1.12	4.46	6.82	7.78	69.41	2.11	2.95	3.03	4.92	suppressing acid formation and/or degradation of the aldehydes [3]: particularly efficient at suppressing acid formation and/or degradation of the aldehydes; 16:Ald ([4]; 10 ppm Copper): 7.81; Z11-16:Ald ([4]; 10 ppm Copper): 72.73
Cc1nnc(S)s1 [5-Methyl-1,3,4-thiadiazole-2-thiol]	–	–	–	–	–	–	–	–	0.04	0.29	1.38	1.14	4.38	6.71	8.04	71.38	2.12	2.74	3.02	4.69	suppressing acid formation and/or degradation of the aldehydes [3]: particularly efficient at suppressing acid formation and/or degradation of the aldehydes; 16:Ald ([4]; 10 ppm Copper): 7.81; Z11-16:Ald ([4]; 10 ppm Copper): 71.97
CC1(C)CC(O)CC(C)(C)N1[O] [Additive 4-OH-TEMPO, 4-hydroxy-2,2,6,6-tetramethylpiperidin-1-oxyl]	–	–	–	–	–	–	–	–	0.04	0.19	3.00	1.53	4.52	6.54	7.60	67.41	1.88	2.69	4.18	4.72	16:Ald ([4]; 10 ppm Copper): 7.51; Z11-16:Ald ([4]; 10 ppm Copper): 68.82
COc1ccc(O)c(C(C)(C)C)c1 [BHA]	3.364	15.55	7.158	59.48	12.64	3.46	7.33	61.54	–	–	–	–	–	–	–	–	–	–	–	–	–
Cc1cc(C(C)(C)C)c(O)c(C(C)(C)C)c1 [BHT]	3.425	16.05	6.958	54.06	10.43	3.73	7.73	65.80	–	–	–	–	–	–	–	–	–	–	–	–	–
C[S+](C)[O-] [DMSO]	3.061	19.17	6.722	55.24	16.74	3.10	6.68	55.41	–	–	–	–	–	–	–	–	–	–	–	–	–
CN(C)CCO [Dimethylethanolamine]	0	11.55	1.242	8.128	17.70	3.09	6.65	54.82	–	–	–	–	–	–	–	–	–	–	–	–	–
OCC(O)CO [Glycerol]	3.115	18.83	6.736	54.86	16.74	0.00	6.75	55.52	–	–	–	–	–	–	–	–	–	–	–	–	–
C1COCCN1 [Morpholine]	2.255	12.35	4.755	40.03	12.54	3.23	6.84	57.13	–	–	–	–	–	–	–	–	–	–	–	–	–
CCCOC(=O)c1cc(O)c(O)c(O)c1 [Propyl Gallate]	3.464	14.55	7.376	61.55	11.32	3.83	3.81	67.75	–	–	–	–	–	–	–	–	–	–	–	–	–
[Na+].[OH-] [Sodium Hydroxide]	2.927	16.74	6.224	51.62	12.93	3.18	6.65	55.97	–	–	–	–	–	–	–	–	–	–	–	–	–
O=S1(=O)CCCC1 [Sulfolane]	3.077	18.34	6.666	54.91	16.92	3.08	6.60	54.29	–	–	–	–	–	–	–	–	–	–	–	–	–
Cc1cc(-n2nc3ccc(Cl)cc3n2)c(O)c(C(C)(C)C)c1 [Sumisorb]	3.325	17.1	6.835	52.4909	15.21	3.20	6.81	56.62	–	–	–	–	–	–	–	–	–	–	–	–	–
CC(C)(C)c1cc(O)ccc1O [TBHQ]	3.367	16.52	6.913	53.69	10.34	3.67	7.75	65.65	–	–	–	–	–	–	–	–	–	–	–	–	–
CC1(C)CC(OC(=O)CCCCCCCCC(=O)OC2CC(C)(C)NC(C)(C)C2)CC(C)(C)N1 [Tinuvin 770]	3.135	18.22	6.749	55.81	16.99	3.12	6.62	54.84	–	–	–	–	–	–	–	–	–	–	–	–	–
Cc1ccc(O)c(-n2nc3ccccc3n2)c1 [Tinuvin P]	3.085	19.1541	6.634	54.35	17.66	3.07	6.57	54.01	–	–	–	–	–	–	–	–	–	–	–	–	–
